According to patent US6150385A, “1,3,4-thiadiazoles useful for the treatment of CMV infections” (Pharmacia & Upjohn Company, priority 1999, dated 2000):

These compounds were tested against T1, HCMV polymerase (Human cytomegalovirus, UniProt P08546) (assay: HCMV polymerase assay (scintillation proximity assay)). Settings: percentage of inhibition at 25 μM concentration in CMV polymerase assay.
T1 construct: made in house; host or cells: SF-9 insect cells infected with recombinant baculovirus
Type: biochemical
How it was run: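 Values are percent inhibition at 25 μM, measured by scintillation proximity after capture of biotinylated poly(dA)-oligo(dT) (6 nM) extended with 90 nM 3H-dTTP. Recombinant SF-9-derived enzyme reacted 30 min at 25 or 37 °C in HEPES pH 7.5/KCl/MgCl2/BSA buffer, ±2 mM CHAPS, before EDTA termination.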

T1 sequence (P08546 whole entry): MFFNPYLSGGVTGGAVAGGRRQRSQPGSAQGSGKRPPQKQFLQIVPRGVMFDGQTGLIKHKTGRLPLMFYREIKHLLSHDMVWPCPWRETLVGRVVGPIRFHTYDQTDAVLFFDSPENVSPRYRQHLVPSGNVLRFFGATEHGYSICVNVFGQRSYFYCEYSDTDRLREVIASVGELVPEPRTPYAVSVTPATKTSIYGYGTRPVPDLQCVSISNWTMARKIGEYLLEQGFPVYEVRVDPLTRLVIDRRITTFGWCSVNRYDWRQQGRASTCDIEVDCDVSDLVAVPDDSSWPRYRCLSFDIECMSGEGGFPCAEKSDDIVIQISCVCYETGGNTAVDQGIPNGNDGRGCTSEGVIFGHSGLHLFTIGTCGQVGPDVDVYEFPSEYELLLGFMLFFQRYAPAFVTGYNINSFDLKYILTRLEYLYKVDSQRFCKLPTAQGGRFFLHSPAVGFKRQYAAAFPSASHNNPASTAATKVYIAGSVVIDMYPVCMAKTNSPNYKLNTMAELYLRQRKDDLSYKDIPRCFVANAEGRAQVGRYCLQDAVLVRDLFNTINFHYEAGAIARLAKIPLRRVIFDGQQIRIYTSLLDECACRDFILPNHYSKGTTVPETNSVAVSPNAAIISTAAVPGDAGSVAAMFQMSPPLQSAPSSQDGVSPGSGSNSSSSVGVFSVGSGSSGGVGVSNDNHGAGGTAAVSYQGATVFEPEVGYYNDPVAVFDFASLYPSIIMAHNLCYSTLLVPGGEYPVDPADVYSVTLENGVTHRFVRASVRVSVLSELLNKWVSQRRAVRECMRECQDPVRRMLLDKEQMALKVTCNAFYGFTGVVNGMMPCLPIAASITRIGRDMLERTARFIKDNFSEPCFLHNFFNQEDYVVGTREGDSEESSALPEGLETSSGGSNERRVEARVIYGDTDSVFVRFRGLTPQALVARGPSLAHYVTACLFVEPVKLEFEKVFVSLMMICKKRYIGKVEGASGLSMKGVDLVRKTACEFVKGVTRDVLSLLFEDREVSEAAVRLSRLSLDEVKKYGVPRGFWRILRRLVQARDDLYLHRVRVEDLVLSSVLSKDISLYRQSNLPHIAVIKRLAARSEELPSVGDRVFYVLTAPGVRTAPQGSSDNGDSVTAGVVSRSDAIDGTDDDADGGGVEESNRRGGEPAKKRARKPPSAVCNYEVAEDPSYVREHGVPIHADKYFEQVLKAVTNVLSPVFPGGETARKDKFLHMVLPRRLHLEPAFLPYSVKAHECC

In order of falling inhibition at 25 µM:
1. CCOc1ccc2ccccc2c1C(=O)Nc1nnc(NC2CCCCCC2)s1 [compound 157, N-[5-(cycloheptylamino)-1,3,4-thiadiazol-2-yl]-2-ethoxy-1-naphthamide]  53%
2. N#Cc1ccc(C(=O)Nc2nnc(NCCCN3CCCC3=O)s2)cc1 [compound 158, 4-cyano-N-(5-{[3-(2-oxo-1-pyrrolidinyl)propyl]amino}-1,3,4-thiadiazol-2-yl)benzamide]  52.9%
3. O=C(Nc1nnc(NCCCNC2CCCCC2)s1)c1ccc(Br)cc1 [compound 159, 4-bromo-N-(5-{[3-(cyclohexylamino)propyl]amino}-1,3,4-thiadiazol-2-yl)benzamide]  52.8%
4. O=C(Nc1nnc(NCCCNC2CCCCC2)s1)c1ccc(F)cc1F [compound 160, N-(5-{[3-(cyclohexylamino)propyl]amino}-1,3,4-thiadiazol-2-yl)-2,4-difluorobenzamide]  52.6%
5. O=C(/C=C/c1ccccc1Cl)Nc1nnc(NCc2ccccn2)s1 [compound 161, (E)-3-(2-chlorophenyl)-N-{5-[(2-pyridinylmethyl)amino]-1,3,4-thiadiazol-2-yl}-2-propenamide]  51.9%
6. Cc1ccc(C(=O)Nc2nnc(NCCCNC3CCCCC3)s2)cc1 [compound 162, N-(5-{[3-(cyclohexylamino)propyl]amino}-1,3,4-thiadiazol-2-yl)-4-methylbenzamide]  51.8%
7. O=C(Nc1nnc(NCCSc2ccccc2)s1)c1ccc(Br)cc1 [compound 163, 4-bromo-N-(5-{[2-(phenylsulfanyl)ethyl]amino}-1,3,4-thiadiazol-2-yl)benzamide]  51.5%
8. O=C(/C=C/c1ccccc1Cl)Nc1nnc(NCc2cccs2)s1 [compound 164, (E)-3-(2-chlorophenyl)-N-{5-[(2-thienylmethyl)amino]-1,3,4-thiadiazol-2-yl}-2-propenamide]  51.4%
9. O=C(CCCCCl)Nc1nnc(NCc2ccc3c(c2)OCO3)s1 [compound 165, N-{5-[(1,3-benzodioxol-5-ylmethyl)amino]-1,3,4-thiadiazol-2-yl}-5-chloropentanamide]  51.3%
10. CCCCCCCC/C=C/CCCCCCCC(=O)Nc1nnc(NC[C@@H]2CCC3CC2C3(C)C)s1 (stereo partly drawn) [compound 166, (E)-N-[5-({[(2R)-6,6-dimethylbicyclo[3.1.1]hept-2-yl]methyl}amino)-1,3,4-thiadiazol-2-yl]-9-octadecenamide]  51.1%
11. CCCCCCCCCCCNc1nnc(NC(=O)c2ccc(C)cc2)s1 [compound 167, 4-methyl-N-[5-(undecylamino)-1,3,4-thiadiazol-2-yl]benzamide]  50.8%
12. O=C(Nc1nnc(NCCCCc2ccccc2)s1)c1ccc(Cl)c(Cl)c1 [compound 168, 3,4-dichloro-N-{5-[(4-phenylbutyl)amino]-1,3,4-thiadiazol-2-yl}benzamide]  50.8%
13. CC(C)c1cc(C(C)C)c(C(=O)Nc2nnc(NCCN3CCCC3)s2)c(C(C)C)c1 [compound 169, 2,4,6-triisopropyl-N-(5-{[2-(1-pyrrolidinyl)ethyl]amino}-1,3,4-thiadiazol-2-yl)benzamide]  50.7%
14. O=C(Nc1nnc(NCCCCc2ccccc2)s1)c1ccc(Br)cc1 [compound 170, 4-bromo-N-{5-[(4-phenylbutyl)amino]-1,3,4-thiadiazol-2-yl}benzamide]  50.5%
15. CCCCCCCC/C=C/CCCCCCCC(=O)Nc1nnc(NCc2ccccn2)s1 [compound 171, (E)-N-{5-[(2-pyridinylmethyl)amino]-1,3,4-thiadiazol-2-yl}-9-octadecenamide]  49.9%
16. O=C(Nc1nnc(NCCCNC2CCCCC2)s1)c1ccc(Cl)c(Cl)c1 [compound 172, 3,4-dichloro-N-(5-{[3-(cyclohexylamino)propyl]amino}-1,3,4-thiadiazol-2-yl)benzamide]  49.7%
17. CC(C)c1cc(C(C)C)c(C(=O)Nc2nnc(NCc3cccc4ccccc34)s2)c(C(C)C)c1 [compound 173, 2,4,6-triisopropyl-N-{5-[(1-naphthylmethyl)amino]-1,3,4-thiadiazol-2-yl}benzamide]  49.5%
18. O=C(Nc1nnc(NCc2ccco2)s1)c1c(Cl)cccc1Cl [compound 174, 2,6-dichloro-N-{5-[(2-furylmethyl)amino]-1,3,4-thiadiazol-2-yl}benzamide]  49.5%
19. CCCCCCCCCCCNc1nnc(NC(=O)c2cc(F)cc(F)c2)s1 [compound 175, 3,5-difluoro-N-[5-(undecylamino)-1,3,4-thiadiazol-2-yl]benzamide]  49.4%
20. CC(C)c1cc(C(C)C)c(C(=O)Nc2nnc(NCC(c3ccccc3)c3ccccc3)s2)c(C(C)C)c1 [compound 176, N-{5-[(2,2-diphenylethyl)amino]-1,3,4-thiadiazol-2-yl}-2,4,6-triisopropylbenzamide]  49.4%
21. CCOc1ccc2ccccc2c1C(=O)Nc1nnc(NCC2CC2)s1 [compound 177, N-{5-[(cyclopropylmethyl)amino]-1,3,4-thiadiazol-2-yl}-2-ethoxy-1-naphthamide]  49%
22. O=C(/C=C/c1ccccc1)Nc1nnc(NCc2ccc3c(c2)OCO3)s1 [compound 178, (E)-N-{5-[(1,3-benzodioxol-5-ylmethyl)amino]-1,3,4-thiadiazol-2-yl}-3-phenyl-2-propenamide]  49%
23. CCCCCCCC/C=C/CCCCCCCC(=O)Nc1nnc(NCCNc2ccccc2)s1 [compound 179, (E)-N-{5-[(2-anilinoethyl)amino]-1,3,4-thiadiazol-2-yl}-9-octadecenamide]  48.5%
24. O=C(Nc1nnc(NCc2ccc3c(c2)OCO3)s1)c1cc2ccccc2s1 [compound 180, N-{5-[(1,3-benzodioxol-5-ylmethyl)amino]-1,3,4-thiadiazol-2-yl}-1-benzothiophene-2-carboxamide]  48.4%
25. Cc1ccc(C(=O)Nc2nnc(NCc3ccc4c(c3)OCO4)s2)cc1 [compound 181, N-{5-[(1,3-benzodioxol-5-ylmethyl)amino]1,3,4-thiadiazol-2-yl}-4-methylbenzamide]  48.3%
26. O=C(Nc1nnc(NCC(c2ccccc2)c2ccccc2)s1)c1ccc(F)cc1F [compound 182, N-{5-[(2,2-diphenylethyl)amino]-1,3,4-thiadiazol-2-yl}-2,4-difluorobenzamide]  48.2%
27. O=C(CCCCCl)Nc1nnc(NCCC(c2ccccc2)c2ccccc2)s1 [compound 183, 5-chloro-N-{5-[(3,3-diphenylpropyl)amino]-1,3,4-thiadiazol-2-yl}pentanamide]  48.1%
28. O=C(Nc1nnc(NCCCN2CCCC2=O)s1)c1ccc2c(c1)C(=O)OC2=O [compound 184, 1,3-dioxo-N-(5-{[3-(2-oxo-1-pyrrolidinyl)propyl]amino}-1,3,4-thiadiazol-2-yl)-1,3-dihydro-2-benzofuran-5-carboxamide]  47.8%
29. O=C(/C=C/c1ccccc1Cl)Nc1nnc(NCCc2cccs2)s1 [compound 185, (E)-3-(2-chlorophenyl)-N-(5-{[2-(2-thienyl)ethyl]amino}-1,3,4-thiadiazol-2-yl)-2-propenamide]  47.6%
30. O=C(CCCCCl)Nc1nnc(NCC(c2ccccc2)c2ccccc2)s1 [compound 186, 5-chloro-N-{5-[(2,2-diphenylethyl)amino]-1,3,4-thiadiazol-2-yl}pentanamide]  47.4%
31. O=C(Nc1nnc(NCC(c2ccccc2)c2ccccc2)s1)c1cc2ccccc2s1 [compound 187, N-{5-[(2,2-diphenylethyl)amino]-1,3,4-thiadiazol-2-yl}-1-benzothiophene-2-carboxamide]  47.2%
32. O=C(Nc1nnc(NCC(c2ccccc2)c2ccccc2)s1)c1cc(F)cc(F)c1 [compound 188, N-{5-[(2,2-diphenylethyl)amino]-1,3,4-thiadiazol-2-yl}-3,5-difluorobenzamide]  47.2%
33. O=C(Nc1nnc(NCc2cccc3ccccc23)s1)c1cccc([N+](=O)[O-])c1 [compound 190, N-{5-[(1-naphthylmethyl)amino]-1,3,4-thiadiazol-2-yl}-3-nitrobenzamide]  47.1%
34. O=C(Nc1nnc(NCCCN2CCCC2=O)s1)c1ccc(Cl)c(Cl)c1 [compound 191, 3,4-dichloro-N-(5-{[3-(2-oxo-1-pyrrolidinyl)propyl]amino}-1,3,4-thiadiazol-2-yl)benzamide]  47.1%
35. O=C(Nc1nnc(NC2CCCc3ccccc32)s1)c1ccc([N+](=O)[O-])o1 (stereo not shown) [compound 192, 5-nitro-N-[5-(1,2,3,4-tetrahydro-1-naphthalenylamino)-1,3,4-thiadiazol-2-yl]-2-furamide]  47%
36. CCSCCNc1nnc(NC(=O)/C=C/c2ccccc2Cl)s1 [compound 193, (E)-3-(2-chlorophenyl)-N-(5-{[2-(ethylsulfanyl)ethyl]amino}-1,3,4-thiadiazol-2-yl)-2-propenamide]  46.9%
37. CCCCCCCCCCCNc1nnc(NC(=O)c2ccc(Br)cc2)s1 [compound 194, 4-bromo-N-[5-(undecylamino)-1,3,4-thiadiazol-2-yl]benzamide]  46.8%
38. O=C(/C=C/c1ccccc1Cl)Nc1nnc(NC2CCCCCC2)s1 [compound 196, (E)-3-(2-chlorophenyl)-N-[5-(cycloheptylamino) 1,3,4-thiadiazol-2-yl]-2-propenamide]  46.2%

In order of rising “% Inhib” value:
1. O=C(Nc1nnc(NCc2cccc3ccccc23)s1)c1ccc(S(=O)(=O)F)cc1 [compound 195, 4-[({5-[(1-naphthylmethyl)amino]-1,3,4-thiadiazol-2-yl}amino)carbonyl]benzenesulfonyl fluoride]  46.7%
2. O=C(Nc1nnc(NCCCNC2CCCCC2)s1)c1ccc(S(=O)(=O)F)cc1 [compound 189, 4-{[(5-{[3-(cyclohexylamino)propyl]amino}-1,3,4-thiadiazol-2-yl)amino]carbonyl}benzenesulfonyl fluoride]  47.1%
